US20070092474A1, “Carnitine salt, preliposome which contains it and dermocosmetic formula for topical use based upon said carnitine salt” (priority 2003, published 2007)
“And” between values parts separate entries of the source, which are not always exact repeats. Equal entries are not always repeated.

What was measured:
[1] = system: skin blemishes deriving from cellulite and from localised adiposity; assay: Overall evaluation of the efficiency of the cosmetic product adjuvating the reduction of skin blemishes; format: in vivo, female volunteers; conditions: versus just carnitine (II) and just hydroxy citric acid (III) in the same tests
Experimental: (§1) A dermatological test was carried out on 25 female volunteers between 18 and 65 years of age, with the backing of the Department of Physiological and Pharmacological Sciences of the university of Pavia. The investigation aimed to check the modification of three anatomical-physiological parameters, qualifying the unaesthetic-functional aspect connected to the manifestation of so-called cellulite and subcutaneous hypertriglyceridaemia: measurement of the skin folds, measurement of the circumference of the thighs, thermographic skin measurement.
(§2) The test stretched out over 60 days with the continual daily application of the aforementioned preparation of cosmetic gel. The measurements were carried out after 15, 30 and 60 days. The detail of the test protocol and of the results obtained is shown hereafter.
Evaluation of the Efficiency of a Cosmetic Product Adjuvating the Reduction of the Skin Blemishes Deriving from Cellulite and from Localised Adiposity.
The present experimentation allows it to be evaluated whether the cosmetic product being studied carries out an action adjuvating the reduction of the skin blemishes deriving from cellulite and from localised adiposity. […]

[2] = system: skin blemishes caused by cellulite and localised adiposity; assay: Plicometry: skin plica thickness measured with a plicometer, dermatological test of the cosmetic gel; format: in vivo, female volunteers; design: RIGHT PLICOMETRY 1/3 T0 / RIGHT PLICOMETRY 3/3 T15 / RIGHT PLICOMETRY 3/3 T30 / RIGHT PLICOMETRY 3/3 T60 / RIGHT PLICOMETRY 1/3 T15 / RIGHT PLICOMETRY 1/3 T30 / RIGHT PLICOMETRY 1/3 T60 / RIGHT PLICOMETRY 2/3 T0 / RIGHT PLICOMETRY 2/3 T15 / RIGHT PLICOMETRY 2/3 T30 / RIGHT PLICOMETRY 2/3 T60 / RIGHT PLICOMETRY 3/3 T0 / LEFT PLICOMETRY 1/3 T0 / LEFT PLICOMETRY 3/3 T15 / LEFT PLICOMETRY 3/3 T30 / LEFT PLICOMETRY 3/3 T60 / LEFT PLICOMETRY 1/3 T30 / LEFT PLICOMETRY 1/3 T60 / LEFT PLICOMETRY 2/3 T0 / LEFT PLICOMETRY 2/3 T15 / LEFT PLICOMETRY 2/3 T30 / LEFT PLICOMETRY 2/3 T60 / LEFT PLICOMETRY 3/3 T0: unit not given beside the values
Experimental: as §1, §2
25 female volunteers aged between 18 and 65, with the presence of skin blemishes caused by cellulite and localised adiposity, were selected according to the following criteria: good general state of health, absence of skin pathologies, not being under medication, commitment not to vary the normal daily routine, no medical history of atopy.
The samples were tested by uniformly applying them on “Glute SX Glute DJ (Femoris Posto SX Femoris Posto DX Femoris Ant. SX Femoris Ant. DX” every day at least once per day for the entire duration of the test.
At the time of inclusion in the study and during the subsequent checks after 15 days (T15), after 30 days (T30) and after 60 days (T60) of treatment the following instrumental measurements were taken: • plicometry (through a plicometer) • thigh circumference (through a measuring tape broken into millimetres) • contact thermography (through liquid crystal thermographic plates).
In particular, the plicometer used in the test constitutes the suitable instrument for measuring the skin plica thickness. Skin plicometry provides numerical data of particular use when the panniculopathic process of the cellulite is associated with localised adiposity.

[3] = MEDIA of 25 volunteers, T0 at inclusion, before treatment
[4] = MEDIA of 25 volunteers, after 15 days of daily gel application
[5] = MEDIA of 25 volunteers, after 30 days of daily gel application
[6] = MEDIA of 25 volunteers, after 60 days of daily gel application
[7] = individual volunteer, T0 at inclusion, before treatment
[8] = individual volunteer, after 15 days of daily gel application
[9] = individual volunteer, after 30 days of daily gel application
[10] = individual volunteer, after 60 days of daily gel application

**Q.** What does the source list for “carnitine hydroxycitrate [carnitine hydroxy citrate]”?
**A.** Comparison of the salt with the two reactants by themselves [1]: provides the best results; LEFT PLICOMETRY 1/3 T0, MEDIA [2, 3]: 25.7; LEFT PLICOMETRY 2/3 T0, MEDIA [2, 3]: 29.6; LEFT PLICOMETRY 3/3 T0, MEDIA [2, 3]: 31.2; RIGHT PLICOMETRY 1/3 T0, MEDIA [2, 3]: 25.7; RIGHT PLICOMETRY 2/3 T0, MEDIA [2, 3]: 30.9; RIGHT PLICOMETRY 3/3 T0, MEDIA [2, 3]: 33.0; LEFT PLICOMETRY 1/3 T15, MEDIA [2, 4]: 25.3; LEFT PLICOMETRY 2/3 T15, MEDIA [2, 4]: 28.9; LEFT PLICOMETRY 3/3 T15, MEDIA [2, 4]: 30.6; RIGHT PLICOMETRY 1/3 T15, MEDIA [2, 4]: 24.4; RIGHT PLICOMETRY 2/3 T15, MEDIA [2, 4]: 29.6; RIGHT PLICOMETRY 3/3 T15, MEDIA [2, 4]: 32.3; LEFT PLICOMETRY 1/3 T30, MEDIA [2, 5]: 23.5; LEFT PLICOMETRY 2/3 T30, MEDIA [2, 5]: 27.3; LEFT PLICOMETRY 3/3 T30, MEDIA [2, 5]: 29.1; RIGHT PLICOMETRY 1/3 T30, MEDIA [2, 5]: 23.4; RIGHT PLICOMETRY 2/3 T30, MEDIA [2, 5]: 28.3; RIGHT PLICOMETRY 3/3 T30, MEDIA [2, 5]: 30.9; LEFT PLICOMETRY 1/3 T60, MEDIA [2, 6]: 22.5; LEFT PLICOMETRY 2/3 T60, MEDIA [2, 6]: 26.6; LEFT PLICOMETRY 3/3 T60, MEDIA [2, 6]: 28.2; RIGHT PLICOMETRY 1/3 T60, MEDIA [2, 6]: 22.7; RIGHT PLICOMETRY 2/3 T60, MEDIA [2, 6]: 27.7; RIGHT PLICOMETRY 3/3 T60, MEDIA [2, 6]: 29.9; LEFT PLICOMETRY 1/3 T0 [2, 7]: 23.3 and 17.8 and 35.9 and 24.9 (2×) and 21.1 and 25.9 and 19.8 and 26.7 and 26.0 and 31.1 and 26.6 and 19.7 and 22.9 (2×) and 24.6 and 32.8 and 28.1 and 24.0 and 30.8 and 27.9 and 22.8 and 34.6 and 16.8 and 30.5; LEFT PLICOMETRY 2/3 T0 [2, 7]: 28.7 and 22.6 and 38.8 and 24.8 and 27.1 and 28.9 and 28.1 and 40.9 and 33.9 and 30.8 and 27.6 and 24.3 and 27.8 and 20.6 and 31.8 and 29.9 and 22.9 and 27.2 and 25.4 and 35.4 and 39.7 and 25.3 and 41.6 and 23.5 and 32.5; LEFT PLICOMETRY 3/3 T0 [2, 7]: 34.9 and 21.8 and 37.9 and 27.8 and 30.8 and 33.3 and 26.8 and 41.6 and 28.1 and 35.9 (2×) and 35.3 and 20.6 and 33.5 (2×) and 20.1 and 20.3 and 37.2 and 17.8 and 34.1 and 41.5 and 22.9 and 40.9 and 28.9 and 38.1; RIGHT PLICOMETRY 1/3 T0 [2, 7]: 30.5 and 23.3 and 17.8 and 35.9 and 24.9 (2×) and 21.1 and 25.9 and 19.8 and 26.7 and 26.0 and 31.1 and 26.6 and 19.7 and 22.9 (2×) and 24.6 and 32.8 and 28.1 and 24.0 and 30.8 and 27.9 and 22.8 and 34.6 and 16.8; RIGHT PLICOMETRY 2/3 T0 [2, 7]: 37.2 and 30.8 and 26.7 and 32.8 and 20.9 and 29.2 and 36.8 and 26.3 and 34.9 and 35.5 and 33.5 and 29.7 and 24.8 and 29.9 and 22.4 and 31.2 and 33.7 and 27.7 and 26.8 and 25.3 and 37.8 and 41.5 and 28.8 and 39.8 and 27.0; RIGHT PLICOMETRY 3/3 T0 [2, 7]: 40.1 and 41.6 and 25.9 and 32.7 and 29.9 (2×) and 33.8 and 37.1 and 39.8 and 40.6 and 37.7 and 36.8 (2×) and 28.8 and 29.4 and 25.6 and 32.3 and 39.9 and 22.3 and 19.8 and 35.1 and 42.6 and 22.9 and 36.2 and 26.8; LEFT PLICOMETRY 1/3 T15 [2, 8]: 22.6 (3×) and 17.1 and 35.2 and 24.2 (2×) and 20.4 and 25.2 and 19.1 and 26.0 and 25.3 and 30.4 and 27.2 and 19.6 and 23.9 and 32.9 and 27.4 and 24.6 and 30.6 and 27.8 and 22.8 and 33.9 and 16.1 and 29.8; LEFT PLICOMETRY 2/3 T15 [2, 8]: 28.0 and 21.9 and 38.1 and 24.1 and 26.4 and 28.2 and 27.4 and 40.2 and 33.2 and 30.1 and 26.9 and 23.6 and 27.1 and 19.9 and 31.1 and 29.2 and 22.2 and 26.5 and 24.7 and 34.7 and 39.0 and 24.6 and 40.9 and 22.8 and 31.8; LEFT PLICOMETRY 3/3 T15 [2, 8]: 34.3 and 21.2 and 37.3 and 27.2 and 30.2 and 32.7 and 26.2 and 41.0 and 27.5 and 35.3 (2×) and 34.7 and 20.0 and 32.9 (2×) and 19.5 and 19.7 and 36.6 and 17.2 and 33.5 and 40.9 and 22.3 and 40.3 and 28.3 and 37.5; RIGHT PLICOMETRY 1/3 T15 [2, 8]: 29.0 and 22.0 and 16.5 and 34.5 and 23.5 (2×) and 19.6 and 24.5 and 18.4 and 25.3 and 24.2 and 30.0 and 27.1 and 19.5 and 23.0 and 23.2 and 31.0 and 20.3 and 26.7 and 22.6 and 29.4 and 26.5 and 21.4 and 33.2 and 15.4; RIGHT PLICOMETRY 2/3 T15 [2, 8]: 35.7 and 28.5 and 25.2 and 30.8 and 19.4 and 27.7 and 35.3 and 24.8 (2×) and 33.4 and 34.0 and 32.0 and 27.3 (2×) and 23.0 and 29.6 and 20.9 and 31.5 and 32.2 and 27.8 and 25.3 and 38.1 and 40.0 and 37.3 and 27.0; RIGHT PLICOMETRY 3/3 T15 [2, 8]: 40.0 (2×) and 24.9 and 31.7 and 28.9 (2×) and 32.8 and 37.5 and 39.6 and 39.8 and 37.8 and 35.9 and 28.2 and 28.4 and 26.1 and 32.0 and 38.9 and 21.3 and 37.0 and 18.8 and 34.1 and 41.6 and 21.9 and 34.9 and 25.8; LEFT PLICOMETRY 1/3 T30 [2, 9]: 21.0 and 15.5 and 33.6 and 22.6 and 18.8 and 23.6 and 17.5 and 24.4 and 23.7 and 28.8 and 24.3 and 17.4 and 20.6 and 22.3 and 30.5 and 23.5 and 20.2 and 25.8 and 23.8 and 28.5 and 25.6 and 21.6 and 32.3 and 14.5 and 28.2; LEFT PLICOMETRY 2/3 T30 [2, 9]: 26.4 and 20.3 and 36.5 and 22.5 and 24.8 and 26.6 and 25.8 and 38.6 and 31.6 and 28.5 and 25.3 and 22.0 and 25.5 and 18.3 and 29.5 and 27.6 and 20.6 and 24.9 and 23.0 (2×) and 33.5 and 37.4 and 39.3 and 21.2 and 30.2; LEFT PLICOMETRY 3/3 T30 [2, 9]: 32.8 and 19.7 and 35.8 and 25.7 and 28.7 and 31.2 and 24.7 and 39.5 and 26.0 and 33.8 (2×) and 33.2 and 18.5 (2×) and 31.4 (2×) and 18.2 and 35.1 and 15.7 and 32.0 and 39.4 and 20.8 and 38.8 and 26.8 and 36.0; RIGHT PLICOMETRY 1/3 T30 [2, 9]: 28.2 and 18.9 and 15.5 and 33.2 and 22.4 and 18.8 and 23.6 and 17.5 and 24.4 and 24.2 and 28.8 and 26.5 and 17.4 and 22.7 and 21.8 and 31.2 and 22.6 and 20.5 (2×) and 25.8 and 21.7 and 27.6 and 24.3 and 32.5 and 14.5; RIGHT PLICOMETRY 2/3 T30 [2, 9]: 34.6 and 28.2 and 24.0 and 30.2 and 18.2 and 25.4 (2×) and 34.0 and 23.7 and 33.5 and 32.9 and 30.0 and 27.6 and 21.7 and 26.5 and 20.0 and 30.8 and 31.0 and 23.9 and 22.3 and 38.1 and 40.0 and 26.2 and 35.6 and 24.3; RIGHT PLICOMETRY 3/3 T30 [2, 9]: 40.2 and 39.9 and 23.6 and 30.4 and 27.6 (2×) and 31.5 and 36.9 and 38.4 and 38.5 and 36.2 and 33.6 and 26.3 and 26.5 and 23.7 and 31.2 and 37.6 and 19.6 and 36.4 and 17.5 and 30.5 and 39.8 and 20.4 and 34.0 and 25.6; LEFT PLICOMETRY 1/3 T60 [2, 10]: 20.5 and 15.0 and 30.9 and 22.1 (2×) and 18.3 and 23.1 and 17.0 and 23.9 (2×) and 23.2 and 27.6 and 23.6 and 16.5 and 18.4 and 21.2 and 30.5 and 19.8 and 25.3 and 20.7 and 26.2 and 21.5 and 30.4 and 14.0 and 27.7; LEFT PLICOMETRY 2/3 T60 [2, 10]: 25.7 and 19.6 and 35.8 and 21.8 and 24.1 and 25.9 and 25.1 and 37.9 and 30.9 and 27.8 and 24.6 and 21.3 and 24.8 and 17.6 and 28.8 and 26.9 and 19.9 and 24.2 and 22.4 and 32.4 and 36.7 and 22.3 and 38.6 and 20.5 and 29.5; LEFT PLICOMETRY 3/3 T60 [2, 10]: 31.9 and 18.8 and 34.9 and 24.8 and 27.8 and 30.3 and 23.8 and 38.6 and 25.1 and 33.2 and 32.3 and 17.6 and 29.6 and 17.2 and 30.5 and 32.9 and 18.5 and 34.2 and 14.8 and 31.0 and 38.5 and 19.9 and 37.9 and 25.9 and 35.1; RIGHT PLICOMETRY 1/3 T60 [2, 10]: 27.5 and 20.5 and 15.0 and 32.1 and 22.0 and 17.8 and 23.0 and 16.7 (2×) and 23.7 and 24.6 and 27.6 and 26.6 and 21.5 and 21.7 and 28.9 and 21.4 and 18.4 and 24.1 and 21.3 and 28.0 and 23.9 and 19.9 and 31.7 and 13.8; RIGHT PLICOMETRY 2/3 T60 [2, 10]: 34.0 and 26.3 and 23.2 and 29.4 and 17.3 and 26.0 and 32.8 and 23.5 and 33.6 and 32.1 and 30.0 and 26.5 and 20.9 and 26.7 and 20.0 and 27.8 and 29.7 and 25.6 (2×) and 23.9 and 21.8 and 37.7 and 40.0 and 35.3 and 23.8; RIGHT PLICOMETRY 3/3 T60 [2, 10]: 38.9 and 37.4 (2×) and 22.3 (2×) and 29.4 and 27.0 and 32.1 and 35.2 and 36.8 and 26.9 and 35.6 and 33.2 (2×) and 25.3 and 26.6 and 29.5 and 35.4 and 18.2 and 34.1 and 17.0 and 30.9 and 39.8 and 19.7 and 23.7
